Eight cell lines from the supplement of paper PMC10307832 can be followed below.

Common to all, as to experiment: relative viability (nuclei count vs DMSO), 5 days (fraction); higher = more cells survive
Compound in the assay “Tivantinib + Linsitinib”: O=C1NC(=O)[C@@H](c2cn3c4c(cccc24)CCC3)[C@@H]1c1c[nH]c2ccccc12 [Tivantinib] + C[C@]1(O)C[C@@H](c2nc(-c3ccc4ccc(-c5ccccc5)nc4c3)c3c(N)nccn32)C1 [Linsitinib] (partner 1 µM)
The method in brief: (§1)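 Cells from lung cancer lines were seeded into 1536-well plates and, one day later, dosed by pin tool. Treatments were either a single drug or a fixed dose of an anchor drug with five library-drug doses (not always all listed) in √10 steps. After 5 days, nuclei were stained in a one-step fixation (final 0.05% Triton X-100, 1% formaldehyde, 1 ug/ml Hoechst) and counted on 4× images, and relative viability is the treated-to-vehicle nuclei ratio, as the median of duplicate plates.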

Compound in the assay “Tivantinib + Trametinib”: O=C1NC(=O)[C@@H](c2cn3c4c(cccc24)CCC3)[C@@H]1c1c[nH]c2ccccc12 [Tivantinib] + CC(=O)Nc1cccc(-n2c(=O)n(C3CC3)c(=O)c3c(Nc4ccc(I)cc4F)n(C)c(=O)c(C)c32)c1 [Trametinib] (partner 0.02 µM)
The method in brief:
as §1

Compound in the assay “Tivantinib + Decitabine”: O=C1NC(=O)[C@@H](c2cn3c4c(cccc24)CCC3)[C@@H]1c1c[nH]c2ccccc12 [Tivantinib] + Nc1ncn([C@H]2C[C@H](O)[C@@H](CO)O2)c(=O)n1 [Decitabine] (partner 2 µM)
The method in brief: as §1

Compound in the assay “Crenolanib + Luminespib”: CC1(COc2ccc3c(c2)ncn3-c2ccc3cccc(N4CCC(N)CC4)c3n2)COC1 [Crenolanib] + CCNC(=O)c1noc(-c2cc(C(C)C)c(O)cc2O)c1-c1ccc(CN2CCOCC2)cc1 [Luminespib] (partner 0.01 µM)
The method in brief:
as §1

On to NCI-H1944, for which the relative viability in the assay with Tivantinib + Linsitinib (first compound 0.01 µM) was determined as 1.07; with Tivantinib + Linsitinib (first compound 0.03162 µM), 1.06; with Tivantinib + Linsitinib (first compound 0.1 µM), 1.01; in the assay with Tivantinib + Linsitinib (first compound 0.3162 µM) it was 0.583; with Tivantinib + Trametinib (first compound 0.01 µM) it was 0.449; with Tivantinib + Trametinib (first compound 0.03162 µM), 0.406. In addition, the relative viability amounted to 0.444 with Tivantinib + Trametinib (first compound 0.1 µM); 0.345 in the assay with Tivantinib + Trametinib (first compound 0.3162 µM); 0.43 in the assay with Tivantinib + Decitabine (first compound 0.01 µM); 0.451 in the assay with Tivantinib + Decitabine (first compound 0.03162 µM); 0.44 in the assay with Tivantinib + Decitabine (first compound 0.1 µM); 0.401 with Tivantinib + Decitabine (first compound 0.3162 µM). For the same cell line, the relative viability worked out at 0.729 with Crenolanib + Luminespib (first compound 0.01 µM); 0.801 with Crenolanib + Luminespib (first compound 0.03162 µM); 0.759 with Crenolanib + Luminespib (first compound 0.1 µM); 0.871 with Crenolanib + Luminespib (first compound 0.3162 µM); 0.655 with Crenolanib + Luminespib (first compound 1 µM).
Regarding NCI-H1975, the relative viability came out at 0.875 with Tivantinib + Linsitinib (first compound 0.01 µM); 0.919 in the assay with Tivantinib + Linsitinib (first compound 0.03162 µM); 0.938 with Tivantinib + Linsitinib (first compound 0.1 µM); 0.598 with Tivantinib + Linsitinib (first compound 0.3162 µM); 0.323 with Tivantinib + Trametinib (first compound 0.01 µM); 0.338 in the assay with Tivantinib + Trametinib (first compound 0.03162 µM). In addition, the relative viability with Tivantinib + Trametinib (first compound 0.1 µM) amounted to 0.33; with Tivantinib + Trametinib (first compound 0.3162 µM), 0.298; in the assay with Tivantinib + Decitabine (first compound 0.01 µM) it was 0.446; in the assay with Tivantinib + Decitabine (first compound 0.03162 µM) it was 0.395; with Tivantinib + Decitabine (first compound 0.1 µM), 0.358; with Tivantinib + Decitabine (first compound 0.3162 µM), 0.34. The relative viability in the assay with Crenolanib + Luminespib (first compound 0.01 µM) came out at 0.337; in the assay with Crenolanib + Luminespib (first compound 0.03162 µM), 0.22; in the assay with Crenolanib + Luminespib (first compound 0.1 µM), 0.182; in the assay with Crenolanib + Luminespib (first compound 0.3162 µM), 0.269; with Crenolanib + Luminespib (first compound 1 µM), 0.185.
In the case of NCI-H1993, the relative viability in the assay with Tivantinib + Linsitinib (first compound 0.01 µM) came out at 0.742; with Tivantinib + Linsitinib (first compound 0.03162 µM), 0.863; in the assay with Tivantinib + Linsitinib (first compound 0.1 µM), 0.734; with Tivantinib + Linsitinib (first compound 0.3162 µM), 0.721; in the assay with Tivantinib + Trametinib (first compound 0.01 µM) it was 0.545; with Tivantinib + Trametinib (first compound 0.03162 µM), 0.462. In addition, the relative viability with Tivantinib + Trametinib (first compound 0.1 µM) was 0.565; with Tivantinib + Trametinib (first compound 0.3162 µM), 0.437; in the assay with Tivantinib + Decitabine (first compound 0.01 µM), 0.59; with Tivantinib + Decitabine (first compound 0.03162 µM), 0.503; with Tivantinib + Decitabine (first compound 0.1 µM), 0.506; in the assay with Tivantinib + Decitabine (first compound 0.3162 µM) it was 0.539. Also, the relative viability with Crenolanib + Luminespib (first compound 0.01 µM) was determined as 0.998; with Crenolanib + Luminespib (first compound 0.03162 µM), 0.839; in the assay with Crenolanib + Luminespib (first compound 0.1 µM), 0.684; in the assay with Crenolanib + Luminespib (first compound 0.3162 µM), 0.823; in the assay with Crenolanib + Luminespib (first compound 1 µM), 0.783.
As to NCI-H2009, the relative viability turned out to be 1.16 in the assay with Tivantinib + Linsitinib (first compound 0.01 µM); 1.19 with Tivantinib + Linsitinib (first compound 0.03162 µM); 1.15 with Tivantinib + Linsitinib (first compound 0.1 µM); 1.17 with Tivantinib + Linsitinib (first compound 0.3162 µM); 0.328 with Tivantinib + Trametinib (first compound 0.01 µM); 0.246 with Tivantinib + Trametinib (first compound 0.03162 µM). Also, the relative viability in the assay with Tivantinib + Trametinib (first compound 0.1 µM) was found to be 0.273; with Tivantinib + Trametinib (first compound 0.3162 µM), 0.238; with Tivantinib + Decitabine (first compound 0.01 µM), 0.361; in the assay with Tivantinib + Decitabine (first compound 0.03162 µM), 0.365; with Tivantinib + Decitabine (first compound 0.1 µM), 0.328; with Tivantinib + Decitabine (first compound 0.3162 µM), 0.391. Further, the relative viability in the assay with Crenolanib + Luminespib (first compound 0.01 µM) is 1.04; with Crenolanib + Luminespib (first compound 0.03162 µM), 1.08; in the assay with Crenolanib + Luminespib (first compound 0.1 µM), 1.06; with Crenolanib + Luminespib (first compound 0.3162 µM), 1.11; with Crenolanib + Luminespib (first compound 1 µM), 0.982.
Consider NCI-H2023, for which the relative viability with Tivantinib + Linsitinib (first compound 0.01 µM) was found to be 0.657; in the assay with Tivantinib + Linsitinib (first compound 0.03162 µM), 0.737; with Tivantinib + Linsitinib (first compound 0.1 µM), 0.575; with Tivantinib + Linsitinib (first compound 0.3162 µM), 0.461; in the assay with Tivantinib + Trametinib (first compound 0.01 µM), 0.593; in the assay with Tivantinib + Trametinib (first compound 0.03162 µM), 0.551. Besides, the relative viability was 0.433 with Tivantinib + Trametinib (first compound 0.1 µM); 0.414 with Tivantinib + Trametinib (first compound 0.3162 µM); 0.24 with Tivantinib + Decitabine (first compound 0.01 µM); 0.218 with Tivantinib + Decitabine (first compound 0.03162 µM); 0.212 in the assay with Tivantinib + Decitabine (first compound 0.1 µM); 0.221 in the assay with Tivantinib + Decitabine (first compound 0.3162 µM). Besides, the relative viability with Crenolanib + Luminespib (first compound 0.01 µM) was determined as 0.839; in the assay with Crenolanib + Luminespib (first compound 0.03162 µM), 0.704; with Crenolanib + Luminespib (first compound 0.1 µM), 0.639; in the assay with Crenolanib + Luminespib (first compound 0.3162 µM) it was 1; with Crenolanib + Luminespib (first compound 1 µM) it was 0.453.
With NCI-H2085, the relative viability in the assay with Tivantinib + Linsitinib (first compound 0.01 µM) is 0.877; in the assay with Tivantinib + Linsitinib (first compound 0.03162 µM), 1.07; in the assay with Tivantinib + Linsitinib (first compound 0.1 µM), 0.986; with Tivantinib + Linsitinib (first compound 0.3162 µM) it was 0.879; in the assay with Tivantinib + Trametinib (first compound 0.01 µM), 0.62; with Tivantinib + Trametinib (first compound 0.03162 µM), 0.484. Besides, the relative viability with Tivantinib + Trametinib (first compound 0.1 µM) was 0.544; with Tivantinib + Trametinib (first compound 0.3162 µM), 0.516; with Tivantinib + Decitabine (first compound 0.01 µM) it was 0.534; in the assay with Tivantinib + Decitabine (first compound 0.03162 µM) it was 0.556; in the assay with Tivantinib + Decitabine (first compound 0.1 µM), 0.554; with Tivantinib + Decitabine (first compound 0.3162 µM) it was 0.551. The relative viability stood at 0.478 in the assay with Crenolanib + Luminespib (first compound 0.01 µM); 0.43 in the assay with Crenolanib + Luminespib (first compound 0.03162 µM); 0.407 in the assay with Crenolanib + Luminespib (first compound 0.1 µM); 0.481 in the assay with Crenolanib + Luminespib (first compound 0.3162 µM); 0.421 in the assay with Crenolanib + Luminespib (first compound 1 µM).
Take NCI-H2087: the relative viability is 0.962 with Tivantinib + Linsitinib (first compound 0.01 µM); 0.795 with Tivantinib + Linsitinib (first compound 0.03162 µM); 0.951 with Tivantinib + Linsitinib (first compound 0.1 µM); 0.944 in the assay with Tivantinib + Linsitinib (first compound 0.3162 µM); 0.217 in the assay with Tivantinib + Trametinib (first compound 0.01 µM); 0.184 with Tivantinib + Trametinib (first compound 0.03162 µM). Moreover, the relative viability with Tivantinib + Trametinib (first compound 0.1 µM) stood at 0.227; with Tivantinib + Trametinib (first compound 0.3162 µM), 0.172; with Tivantinib + Decitabine (first compound 0.01 µM), 0.326; with Tivantinib + Decitabine (first compound 0.03162 µM), 0.311; with Tivantinib + Decitabine (first compound 0.1 µM), 0.21; with Tivantinib + Decitabine (first compound 0.3162 µM) it was 0.196. The relative viability was found to be 0.184 with Crenolanib + Luminespib (first compound 0.01 µM); 0.195 with Crenolanib + Luminespib (first compound 0.03162 µM); 0.167 in the assay with Crenolanib + Luminespib (first compound 0.1 µM); 0.191 with Crenolanib + Luminespib (first compound 0.3162 µM); 0.184 with Crenolanib + Luminespib (first compound 1 µM).
In the case of NCI-H2126, the relative viability with Tivantinib + Linsitinib (first compound 0.01 µM) was 0.713; with Tivantinib + Linsitinib (first compound 0.03162 µM) it was 0.677; in the assay with Tivantinib + Linsitinib (first compound 0.1 µM), 0.671; in the assay with Tivantinib + Linsitinib (first compound 0.3162 µM), 0.578; in the assay with Tivantinib + Trametinib (first compound 0.01 µM), 0.522; in the assay with Tivantinib + Trametinib (first compound 0.03162 µM) it was 0.549. The relative viability with Tivantinib + Trametinib (first compound 0.1 µM) was determined as 0.573; in the assay with Tivantinib + Trametinib (first compound 0.3162 µM) it was 0.545; with Tivantinib + Decitabine (first compound 0.01 µM), 0.57; with Tivantinib + Decitabine (first compound 0.03162 µM), 0.549; in the assay with Tivantinib + Decitabine (first compound 0.1 µM), 0.587; with Tivantinib + Decitabine (first compound 0.3162 µM), 0.547. Further, the relative viability with Crenolanib + Luminespib (first compound 0.01 µM) amounted to 0.922; in the assay with Crenolanib + Luminespib (first compound 0.03162 µM), 0.958; with Crenolanib + Luminespib (first compound 0.1 µM) it was 0.869; in the assay with Crenolanib + Luminespib (first compound 0.3162 µM) it was 0.857; in the assay with Crenolanib + Luminespib (first compound 1 µM), 0.588.
